Source: patent US20100317850A1 (priority 2008, published 2010)

What follows are compounds tested on Aβ42 production (assay: Quantification of Aβ peptide in culture of neurons from rat fetus brain (Aβ ELISA)). Details: Neuron, 72 h; rat primary neuronal culture (cerebral cortex, embryonic day 18 Wistar rats); medium collected three days after addition of the compound; Aβx-42 ELISA; read-out: Aβ42 production reducing effect IC50.
Assay type: cell-based
Method: Quantification of Aβ Peptide in Culture of Neurons from Rat Fetus Brain
(1) Rat Primary Neuronal Culture
Primary neuronal cultures were prepared from the cerebral cortex of embryonic day 18 Wistar rats (Charles River Japan, Yokohama, Japan). Specifically, the embryos were aseptically removed from pregnant rats under ether anesthesia. The brain was isolated from the embryo and immersed in an ice-cold L-15 medium (such as Invitrogen Corp. Cat #11415-064, Carlsbad, Calif., USA, or SIGMA L1518). The cerebral cortex was collected from the isolated brain under a stereoscopic microscope. The cerebral cortex fragments collected were enzymatically treated in an enzyme solution containing 0.25% trypsin (Invitrogen Corp. Cat #15050-065, Carlsbad, Calif., USA) and 0.01% DNase (Sigma D5025, St. Louis, Mo., USA) at 37° C. for 30 minutes to disperse the cells. Here, the enzymatic reaction was stopped by adding inactivated horse serum to the solution. The enzymatically treated solution was centrifuged at 1,500 rpm for five minutes to remove the supernatant. 5 to 10 mL of a medium was added to the resulting cell mass. Neurobasal medium (Invitrogen Corp. Cat #21103-049, Carlsbad, Calif., USA) supplemented with 2% B27 supplement (Invitrogen Corp. Cat #17504-044, Carlsbad, Calif., USA), 25 μM 2-mercaptoethanol (2-ME, WAKO Cat #139-06861, Osaka, Japan), 0.5 mM L-glutamine (Invitrogen Corp. Cat #25030-081, Carlsbad, Calif., USA), and Antibiotics-Antimycotics (Invitrogen Corp. Cat #15240-062, Carlsbad, Calif., USA) was used as the medium (Neurobasal/B27/2-ME). However, the above Neurobasal medium not supplemented with 2-ME (Neurobasal/B27) was used for the assay. The cells were redispersed by mild pipetting of the cell mass to which the medium was added. The cell dispersion was filtered through a 40-μm nylon mesh (Cell Strainer, Cat #35-2340, Becton Dickinson Labware, Franklin Lakes, N.J., USA) to remove the remaining cell mass, and thus a neuronal cell suspension was obtained. The neuronal cell suspension was diluted with the medium and then plated in a volume of 100 μL/well at an initial cell density of 5×10^5 cells/cm^2 in a 96-well polystyrene culture plate pre-coated with poly-L or D-lysine (Falcon Cat #35-3075, Becton Dickinson Labware, Franklin Lakes, N.J., USA coated with poly-L-lysine using the method shown below, or BIOCOAT™ cell environments Poly-D-lysine cell ware 96-well plate, Cat #35-6461, Becton Dickinson Labware, Franklin Lakes, N.J., USA). Poly-L-lysine coating was carried out as follows. 100 μg/mL of a poly-L-lysine (SIGMA P2636, St. Louis, Mo., USA) solution was aseptically prepared with a 0.15 M borate buffer (pH 8.5). […] of the solution was added to the 96-well polystyrene culture plate and incubated at room temperature for one or more hours or at 4° C. overnight or longer. Thereafter, the coated 96-well polystyrene culture plate was washed with sterile water four or more times, and then dried or rinsed with, for example, sterile PBS or medium, and used for cell plating. The plated cells were cultured in the culture plate at 37° C. in 5% CO2-95% air for one day. Then, the total amount of the medium was replaced with a fresh Neurobasal™/B27/2-ME medium, and then the cells were cultured for further three days.
The drug was added to the culture plate on Day 4 of culture as follows. The total amount of the medium was removed from the wells, and 180 μL/well of Neurobasal medium not containing 2-ME and containing 2% B-27 (Neurobasal/B27) was added thereto. A solution of the test compound in dimethyl sulfoxide (hereinafter abbreviated as DMSO) was diluted with Neurobasal/B27 to a concentration 10-fold higher than the final concentration. 20 μL/well of the dilution was added to and sufficiently mixed with the medium. The final DMSO concentration was 1% or less. Only DMSO was added to the control group.
The cells were cultured for three days after addition of the compound, and the total amount of the medium was collected. […]
NC1=N[C@@]2(c3cc(NC(=O)c4ccc(C(F)(F)F)cn4)ccc3F)CO[C@H](CF)[C@H]2CS1 [Example 70, N-[3-((4aS,5S,7aS)-2-amino-5-fluoromethyl-4a,5-dihydro-4H-furo[3,4-d][1,3]thiazin-7a-yl)-4-fluorophenyl]-5-trifluoromethylpyridine-2-carboxamide] gave an IC50 of 2 nM.
In the case of CCCCO[C@@H]1C[C@H]2CSC(N)=N[C@@]2(c2cc(NC(=O)c3ccc(C#N)cn3)ccc2F)C1 (relative stereo) [Example 108, (+)-N-[3-((4aR*,6R*,7aS*)-2-amino-6-butoxy-4a,5,6,7-tetrahydro-4H-cyclopenta[d][1,3]thiazin-7a-yl)-4-fluorophenyl]-5-cyanopyridine-2-carboxamide], the IC50 is reported as 1 nM.
NC1=N[C@@]2(c3cc(NC(=O)c4ccc(C(F)F)cn4)ccc3F)COC[C@H]2CS1 (single isomer, unassigned) [Example 190, N-[3-((4aS*,7aS*)-2-amino-4a,5-dihydro-4H-furo[3,4-d][1,3]thiazin-7a-yl)-4-fluorophenyl]-5-difluoromethylpyridine-2-carboxamide] showed an IC50 of 12 nM.
N#Cc1ccc(C(=O)Nc2ccc(F)c([C@]34CCC[C@H]3CSC(N)=N4)c2)nc1 (single isomer, unassigned) [Example 22, N-[3-((4aR*,7aS*)-2-amino-4a,5,6,7-tetrahydro-4H-cyclopenta[d][1,3]thiazin-7a-yl)-4-fluorophenyl]-5-cyanopyridine-2-carboxamide] showed an IC50 of 5 nM.
In the case of NC1=N[C@@]2(c3cc(NC(=O)c4ccc(OCC(F)(F)F)cn4)ccc3F)CCC[C@H]2CS1 (single isomer, unassigned) [Example 179, N-[3-((4aR*,7aS*)-2-amino-4a,5,6,7-tetrahydro-4H-cyclopenta[d][1,3]thiazin-7a-yl)-4-fluorophenyl]-5-(2,2,2-trifluoroethoxy)-pyridine-2-carboxamide], the IC50 is reported as 98 nM.
C[C@H]1OC[C@]2(c3cc(NC(=O)c4cnc(OCF)cn4)ccc3F)N=C(N)SC[C@H]12 (relative stereo) [Example 57, N-[3-((4aS*,5R*,7aS*)-2-amino-5-methyl-4a,5-dihydro-4H-furo[3,4-d][1,3]thiazin-7a-yl)-4-fluorophenyl]-5-fluoromethoxypyrazine-2-carboxamide] gave an IC50 of 3 nM.
In the case of NC1=N[C@@]2(c3cc(NC(=O)c4ncc(F)cc4F)ccc3F)COC[C@H]2CS1 (single isomer, unassigned) [Example 188, N-[3-((4aS*,7aS*)-2-amino-4a,5-dihydro-4H-furo[3,4-d][1,3]thiazin-7a-yl)-4-fluorophenyl]-3,5-difluoropyridine-2-carboxamide], the IC50 is reported as 22 nM.
NC1=N[C@@]2(c3cc(NC(=O)c4ccc(Cl)cn4)ccc3F)CCCC[C@H]2CS1 (single isomer, unassigned) [Example 3, (+)-N-[3-((4aR.*,8aS*)-2-amino-4,4a,5,6,7,8-hexahydrobenzo[d][1,3]thiazin-8a-yl)-4-fluorophenyl]-5-chloropyridine-2-carboxamide] showed an IC50 of 9 nM.
With NC1=N[C@@]2(c3cc(NC(=O)c4ccc(Cl)cn4)ccc3F)CCO[C@H](CF)[C@H]2CS1 (relative stereo) [Example 148, N-[3-((4aS*,5S*,8aS*)-2-amino-5-fluoromethyl-4a,5,7,8-tetrahydro-4H-6-oxa-3-thia-1-azanaphthalen-8a-yl)-4-fluorophenyl]-5-chloropyridine-2-carboxamide] the IC50 was 9 nM.
With NC1=N[C@@]2(c3cc(NC(=O)c4ccc(Cl)cn4)ccc3F)CCC[C@H]2CS1 (relative stereo) [Example 5, (+)-N-[3-((4aR*,7aS*)-2-amino-4a,5,6,7-tetrahydro-4H-cyclopenta[d][1,3]thiazin-7a-yl)-4-fluorophenyl]-5-chloropyridine-2-carboxamide] the IC50 was 3 nM.
For CC[C@H]1OC[C@]2(c3cc(NC(=O)c4cnc(OCF)cn4)ccc3F)N=C(N)SC[C@H]12 (relative stereo) [Example 52, N-[3-((4aS*, 5R*,7aS*)-2-amino-5-ethyl-4a,5-dihydro-4H-furo[3,4-d][1,3]thiazin-7a-yl)-4-fluorophenyl]-5-fluoromethoxypyrazine-2-carboxamide], the IC50 was 2 nM.
NC1=N[C@@]2(c3cc(NC(=O)c4cnc(Cl)cn4)ccc3F)CCCC[C@H]2CS1 (single isomer, unassigned) [Example 104, N-[3-((4aR*,8aS*)-2-amino-4,4a,5,6,7,8-hexahydrobenzo[d][1,3]thiazin-8a-yl)-4-fluorophenyl]-5-chloropyrazine-2-carboxamide] showed an IC50 of 212 nM.
For NC1=N[C@@]2(c3cc(NC(=O)c4ccc(C(F)(F)F)cn4)ccc3F)COC[C@H]2CS1 (relative stereo) [Example 165, N-[3-((4aS*,7aS*)-2-amino-4a,5-dihydro-4H-furo[3,4-d][1,3]thiazin-7a-yl)-4-fluorophenyl]-5-trifluoromethylpyridine-2-carboxamide], the IC50 was 12 nM.
In the case of CO[C@H]1C[C@H]2CSC(N)=N[C@@]2(c2cc(-c3cccnc3F)ccc2F)C1 (relative stereo) [Example 243, (±)-(4aR*,6S*,7aS*)-7a-[2-Fluoro-5-(2-fluoro-pyridin-3-yl)phenyl-6-methoxy-4,4a,5,6,7,7a-hexahydrocyclopenta[d][1,3]thiazin-2-ylamine], the IC50 is reported as 69 nM.
CCO[C@H]1C[C@H]2CSC(N)=N[C@@]2(c2cc(NC(=O)c3ccc(C#N)cn3)ccc2F)C1 (relative stereo) [Example 89, (+)-N-[3-((4aR*,6S*,7aS*)-2-amino-6-ethoxy-4a,5,6,7-tetrahydro-4H-cyclopenta[d][1,3]thiazin-7a-yl)-4-fluorophenyl]-5-cyanopyridine-2-carboxamide] showed an IC50 of 3.2 nM.
In the case of COC[C@H]1C[C@]2(c3cc(NC(=O)c4cnc(C(F)F)cn4)ccc3F)N=C(N)SC[C@@H]2CO1 [Example 40, N-[3-((4aS,7R,8aS)-2-amino-7-methoxymethyl-4a,5,7,8-tetrahydro-4H-6-oxa-3-thia-1-azanaphthalen-8a-yl)-4-fluorophenyl]-5-difluoromethylpyrazine-2-carboxamide], the IC50 is reported as 26 nM.
For NC1=N[C@@]2(c3cc(NC(=O)c4ncccc4F)ccc3F)CCCC[C@H]2CS1 [Example 259], the IC50 was 372 nM.
Work on N#Cc1ccc(C(=O)Nc2ccc(F)c([C@]34CCCC[C@H]3CSC(N)=N4)c2)nc1 (relative stereo) [Example 19, N-[3-((4aR*,8aS*)-2-amino-4,4a,5,6,7,8-hexahydrobenzo[d][1,3]thiazin-8a-yl)-4-fluorophenyl]-5-cyanopyridine-2-carboxamide] yielded an IC50 of 45 nM.
For NC1=N[C@@]2(c3cc(NC(=O)c4ncccn4)ccc3F)CCCC[C@H]2CS1 [Example 121], the IC50 was 263 nM.
With CO[C@@H]1C[C@H]2CSC(N)=N[C@@]2(c2cc(NC(=O)c3cnc(OCF)cn3)ccc2F)C1 (relative stereo) [Example 96, (+)-N-[3-((4aR*,6R*,7aS*)-2-amino-6-methoxy-4a,5,6,7-tetrahydro-4H-cyclopenta[d][1,3]thiazin-7a-yl)-4-fluorophenyl]-5-fluoromethoxypyrazine-2-carboxamide] the IC50 was 1 nM.

Same assay, conditions: rat primary neuronal culture (cerebral cortex, embryonic day 18 Wistar rats); medium collected three days after addition of the compound; Aβx-42 ELISA; read-out: Aβ42 production reducing effect IC50
“N-[3-((4aR*,9aS*)-2- amino-4a,5,6,7,8,9-hexahydro-4H- cyclohepta[d][1,3]thiaziin-9a-yl)-4- fluorophenyl]-6-chloropyridine-2- carboxamide [Example 248]” gave an IC50 of 16 nM.
